Patent US8658591B2, “Multi-LEU peptides and analogues thereof as selective PACE4 inhibitors and effective antiproliferative agents” (priority 2008, dated 2014)
“And” between values parts separate entries of the source, which are not always exact repeats. Equal values may be shown once.

Legend:
PC7 = biological target: T1, PC7 (Homo sapiens, UniProt Q16549); assay: Enzyme inhibition assay, fluorogenic substrate, PC7; format: biochemical; details: 20 mM Bis-Tis pH 6.5, 1 mM CaCl2, substrate 250 μM, 37° C.
T1 sequence (Q16549 142-785): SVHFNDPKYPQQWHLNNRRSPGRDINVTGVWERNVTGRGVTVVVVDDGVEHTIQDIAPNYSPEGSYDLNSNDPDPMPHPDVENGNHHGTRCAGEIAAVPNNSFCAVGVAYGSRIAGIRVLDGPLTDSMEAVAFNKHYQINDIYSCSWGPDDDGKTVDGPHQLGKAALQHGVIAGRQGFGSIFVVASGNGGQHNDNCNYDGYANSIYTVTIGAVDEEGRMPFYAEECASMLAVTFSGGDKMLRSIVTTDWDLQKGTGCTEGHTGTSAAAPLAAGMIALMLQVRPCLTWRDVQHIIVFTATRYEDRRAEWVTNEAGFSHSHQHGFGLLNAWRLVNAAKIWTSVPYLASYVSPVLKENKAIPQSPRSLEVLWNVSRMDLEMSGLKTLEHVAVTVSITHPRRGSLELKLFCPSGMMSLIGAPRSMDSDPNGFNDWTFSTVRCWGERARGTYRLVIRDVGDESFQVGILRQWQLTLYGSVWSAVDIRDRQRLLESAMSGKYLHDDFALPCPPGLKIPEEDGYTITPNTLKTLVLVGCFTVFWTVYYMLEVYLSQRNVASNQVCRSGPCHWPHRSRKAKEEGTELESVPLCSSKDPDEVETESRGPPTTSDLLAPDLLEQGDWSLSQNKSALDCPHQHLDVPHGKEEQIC
Procedure: (§1) Enzyme inhibition assays for furin (FIG. 5D) were performed in 100 mM Hepes pH 7.5, 1 mM CaCl2, 1 mM β-mercaptoethanol, 0.5 μg/μL BSA. Assays for PC2 (FIG. 5E) were performed in 20 mM Bis-Tris pH 5,7, 1 mM CaCl2, 0.1% Brij-30. Assays for PC1/3, PC4, PACE4, PC5/6 and PC7 (FIGS. 5F, G, A, B and C respectively) were performed in 20 mM Bis-Tis pH 6.5, 1 mM CaCl2. All assays were performed with the substrate pyroGlu-Arg-[…]-Lys-Arg-methyl-coumaryl-7-amide (SEQ ID NO: 33) (PyrRTKR-MCA (SEQ ID NO: 34)) (Bachem, CA) at 100 μM for furin, PC1/3, PC4, PACE4 and PC5/6, 200 μM for PC2 and 250 μM for PC7. Assays were carried out at 37° C. for 30-60 min and real-time fluorescence was measured with an excitation wavelength of 370 nm and an emission wavelength of 460 nm using a Gemini XS™ 96-well spectrofluorometer and SoftMaxPro4™ software (Molecular Devices, CA). Inhibitory peptides were added to the enzymes at decreasing concentrations from 100 μM to 50 nM and incubated 5 minutes prior to the addition of substrate.

DU145 cells = assay: Annexin-V-FITC/propidium iodide apoptosis assay, DU145; format: cell-based, human; details: DU145, 66 μM, 48 h
Procedure: The annexin V assay is based on the observation that soon after initiating apoptosis, cells translocate the membrane phosphatidylserine from the inner face of the plasma membrane to the cell surface. Once on the cell surface, phosphatidylserine can be easily detected by staining with a fluorescent conjugate of Annexin V, a protein that has a high affinity for phosphatidylserine. Detection is analyzed by flow cytometry. […] This analysis was performed with a FITC-conjugated annexin-V, which has a strong affinity for these extracellular phosphatidylserines, and the fluorescent intercalating agent propidium iodide (PI). Cell lines were seeded in a 6-well plate at a density of 8×10^4 cells/well in complete growth medium. The next day, cells were washed twice with PBS and complete growth media with or without cisplatin (Sigma) at final concentration of 66 μM were added. After a 48 hours incubation period, growth media were collected and combined to the harvested cells obtained after trypsin treatment. The collected pellets were washed with PBS before staining. Then, cells were stained with the Annexin-V-FLUOS™ Staining Kit (Roche Applied science), which double labeled cells with annexin-V-fluorescein isothiocyanate (FITC) and propidium iodide (PI). Stained cells were then analyzed with FACScan flow cytometer (BD Biosciences).

[1] = tested on: 4-2 cells (DU145 transfected with PACE4-SOFA-δRz); assay: Annexin-V-FITC/propidium iodide apoptosis assay, 4-2 cells; format: cell-based, human; details: 66 μM, 48 h
Procedure: To determine if the reduced cell number observed in the 4-2 cell line, described previously in Example 3, was a consequence of the induction of the apoptosis, the translocation of phosphatidylserine from the inner to the outer leaflet of the plasma membrane was analyzed. This analysis was performed with a FITC-conjugated annexin-V, which has a strong affinity for these extracellular phosphatidylserines, and the fluorescent intercalating agent propidium iodide (PI). Cell lines were seeded in a 6-well plate at a density of 8×10^4 cells/well in complete growth medium. The next day, cells were washed twice with PBS and complete growth media with or without cisplatin (Sigma) at final concentration of 66 μM were added. After a 48 hours incubation period, growth media were collected and combined to the harvested cells obtained after trypsin treatment. The collected pellets were washed with PBS before staining. Then, cells were stained with the Annexin-V-FLUOS™ Staining Kit (Roche Applied science), which double labeled cells with annexin-V-fluorescein isothiocyanate (FITC) and propidium iodide (PI). Stained cells were then analyzed with FACScan flow cytometer (BD Biosciences).

[2] = tested on: prostatic cell line DU145; assay: MTT cell proliferation index, DU145; format: cell-based, human; details: control = 100%, MTT after 48 hours
Procedure: The effects of the PACE4 inhibitors on cell proliferation were evaluated. MTT assay was used to evaluate the effects of PACE4 inhibitors on cell proliferation. MTT (3-(4,5-Dimethylthiazol-2-yl)-2,5-diphenyltetrazolium bromide) assay is a standard colorimetric assay for measuring cellular proliferation. Yellow MTT is reduced to purple formazan in the mitochondria of living cells. This reduction takes place only when mitochondrial reductase enzymes are active. Conversion is directly related to the number of viable cells. The MTT assay is quantitative and more sensitive than viability using trypan blue and can also be adapted to 96 well formats, whereas trypan blue tests must be read individually. Because the MTT assay requires less cell manipulation than [^3H]thymidine incorporation assays (no cell harvesting or medium changes are necessary), the possibility of error is reduced and the standard deviation values are lower. […] Other assays also known can be used to determine the effects of an inhibitor on the proliferation of a cell.
The index of cellular proliferation of cells treated with the ML and acetyl-ML (CH3CO—NH-[…]-CONH2 (SEQ ID NO: 5), see Table 2) peptides were measured using the colorimetric MTT assay (thiazolyl blue tetrazolium bromide; Sigma-Aldrich). Briefly, cells were seeded in 96-well plate (BD Biosciences) in triplicate with 100 μl of a 3.5×10^4 cells/ml cell suspension in complete growth medium. The following day, cells were carefully washed twice with PBS and media were replaced with 100 μl of either RPMI or conditioned growth media. Conditioned growth medium preparation consists in 1.2×10^5 cells seeded in 6-well plates with complete growth media. The next day, cells are washed twice with PBS and the media are replaced with 1 ml RPMI growth medium. 48 hours later, the conditioned media are collected, filtered through […] syringe filter units and incubated on different cell lines.
48 hours later, 20 μl of a MTT solution (5 mg/ml in PBS 1×) was added to each well for 4.5 h at 37° C./5% CO2. The media was then discarded and the cells were solubilized with 100 μl isopropanol/0.04 N HCl solution. The absorbance was measured at a wavelength of 550 nm with a reference at 650 nm in microplate reader (SpectraMax190™; Molecular Devices).

[3] = tested on: gliobastoma cell line U251; assay: MTT cell proliferation index, U251; format: cell-based, human
Procedure: (§2) The effects of the PACE4 inhibitors on cell proliferation were evaluated. MTT assay was used to evaluate the effects of PACE4 inhibitors on cell proliferation. MTT (3-(4,5-Dimethylthiazol-2-yl)-2,5-diphenyltetrazolium bromide) assay is a standard colorimetric assay for measuring cellular proliferation. Yellow MTT is reduced to purple formazan in the mitochondria of living cells. This reduction takes place only when mitochondrial reductase enzymes are active. Conversion is directly related to the number of viable cells. The MTT assay is quantitative and more sensitive than viability using trypan blue and can also be adapted to 96 well formats, whereas trypan blue tests must be read individually. […]
(§3) The index of cellular proliferation of cells treated with the ML and acetyl-ML (CH3CO—NH-[…]-CONH2 (SEQ ID NO: 5), see Table 2) peptides were measured using the colorimetric MTT assay (thiazolyl blue tetrazolium bromide; Sigma-Aldrich). […]
(§4) 48 hours later, 20 μl of a MTT solution (5 mg/ml in PBS 1×) was added to each well for 4.5 h at 37° C./5% CO2. […] The absorbance was measured at a wavelength of 550 nm with a reference at 650 nm in microplate reader (SpectraMax190™; Molecular Devices).

[4] = tested on: sarcofibroma cell line HT1080; assay: MTT cell proliferation index, HT1080; format: cell-based, human
Procedure: as §2, §3, §4

PACE4 = biological target: T2, PACE4 (Homo sapiens, UniProt P29122); assay: Enzyme inhibition assay, fluorogenic substrate, PACE4; format: biochemical
T2 sequence (P29122 150-969): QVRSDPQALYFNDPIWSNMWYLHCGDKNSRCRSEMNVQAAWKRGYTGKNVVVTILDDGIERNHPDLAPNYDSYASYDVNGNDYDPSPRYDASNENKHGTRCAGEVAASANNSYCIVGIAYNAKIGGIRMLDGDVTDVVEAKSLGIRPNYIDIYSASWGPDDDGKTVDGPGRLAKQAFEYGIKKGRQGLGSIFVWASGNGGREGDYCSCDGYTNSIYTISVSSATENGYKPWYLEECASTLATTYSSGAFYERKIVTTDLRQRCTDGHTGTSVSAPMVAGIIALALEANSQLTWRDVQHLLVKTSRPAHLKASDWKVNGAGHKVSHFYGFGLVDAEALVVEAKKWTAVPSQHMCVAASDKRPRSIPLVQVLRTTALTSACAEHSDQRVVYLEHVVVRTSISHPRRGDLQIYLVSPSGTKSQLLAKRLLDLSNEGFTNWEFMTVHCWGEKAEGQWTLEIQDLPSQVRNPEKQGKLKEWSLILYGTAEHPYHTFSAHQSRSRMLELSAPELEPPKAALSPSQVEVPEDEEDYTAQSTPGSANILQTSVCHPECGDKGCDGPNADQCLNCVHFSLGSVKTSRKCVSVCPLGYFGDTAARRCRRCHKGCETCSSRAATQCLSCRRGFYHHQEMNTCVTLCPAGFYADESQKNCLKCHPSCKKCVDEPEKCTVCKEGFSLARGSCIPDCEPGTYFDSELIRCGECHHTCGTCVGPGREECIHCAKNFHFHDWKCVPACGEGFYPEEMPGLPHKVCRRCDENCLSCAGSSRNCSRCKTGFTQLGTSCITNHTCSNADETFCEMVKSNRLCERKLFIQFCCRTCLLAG
Description: Those skilled in the art can easily determine PACE4 activity using routine experimentation. For example, the activity assay of PACE4 can be carried out in 96 well plates, and includes the use of a fluorogenic substrate, namely PyrRTKR-AMC (SEQ ID NO: 30) (AMC is amino-methyl-coumarin). The substrate and the purified enzyme are placed in the wells, and depending on the units of enzyme present, the AMC moiety will be cleaved at a certain rate, such a pmoles/sec. The resultant free AMC is now fluorescent and can be detected with a spectrofluorometer. The addition of inhibitors to the assay will yield progress curves that have lesser slopes. Based on these changes the inhibitory constants (Ki) is calculated (Fugere et al., 2002, J. Biol. Chem., 277:7648-56).
as §1

PC5/6 = PC5/6 (Homo sapiens, UniProt Q92824); assay: Enzyme inhibition assay, fluorogenic substrate, PC5/6; format: biochemical
Procedure: as §1

furin = furin (Homo sapiens, UniProt P09958); assay: Enzyme inhibition assay, fluorogenic substrate, furin; format: biochemical
Procedure: as §1

PC1/3 = biological target: T3, PC1/3 (Homo sapiens, UniProt P29120); assay: Enzyme inhibition assay, fluorogenic substrate, PC1/3; format: biochemical
T3 sequence (P29120 111-753): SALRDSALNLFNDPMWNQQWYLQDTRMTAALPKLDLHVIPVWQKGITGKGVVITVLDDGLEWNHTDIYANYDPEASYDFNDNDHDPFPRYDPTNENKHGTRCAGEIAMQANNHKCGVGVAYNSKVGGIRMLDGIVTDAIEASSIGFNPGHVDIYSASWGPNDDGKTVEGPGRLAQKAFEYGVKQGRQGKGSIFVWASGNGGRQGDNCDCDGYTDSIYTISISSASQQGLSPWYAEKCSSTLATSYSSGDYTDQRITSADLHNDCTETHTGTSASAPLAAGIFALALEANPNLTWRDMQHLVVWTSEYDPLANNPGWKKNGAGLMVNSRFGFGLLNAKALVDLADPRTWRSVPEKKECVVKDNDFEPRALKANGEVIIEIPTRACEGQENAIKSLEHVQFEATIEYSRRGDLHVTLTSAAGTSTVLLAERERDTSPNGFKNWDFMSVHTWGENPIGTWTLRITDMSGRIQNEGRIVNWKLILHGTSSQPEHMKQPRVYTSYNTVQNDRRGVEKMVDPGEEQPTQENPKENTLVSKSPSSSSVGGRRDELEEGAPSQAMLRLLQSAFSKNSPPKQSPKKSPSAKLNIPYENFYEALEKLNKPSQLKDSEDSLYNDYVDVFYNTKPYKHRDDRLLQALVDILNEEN
Procedure: as §1

Chain of furin (P09958 108-794, species assumed): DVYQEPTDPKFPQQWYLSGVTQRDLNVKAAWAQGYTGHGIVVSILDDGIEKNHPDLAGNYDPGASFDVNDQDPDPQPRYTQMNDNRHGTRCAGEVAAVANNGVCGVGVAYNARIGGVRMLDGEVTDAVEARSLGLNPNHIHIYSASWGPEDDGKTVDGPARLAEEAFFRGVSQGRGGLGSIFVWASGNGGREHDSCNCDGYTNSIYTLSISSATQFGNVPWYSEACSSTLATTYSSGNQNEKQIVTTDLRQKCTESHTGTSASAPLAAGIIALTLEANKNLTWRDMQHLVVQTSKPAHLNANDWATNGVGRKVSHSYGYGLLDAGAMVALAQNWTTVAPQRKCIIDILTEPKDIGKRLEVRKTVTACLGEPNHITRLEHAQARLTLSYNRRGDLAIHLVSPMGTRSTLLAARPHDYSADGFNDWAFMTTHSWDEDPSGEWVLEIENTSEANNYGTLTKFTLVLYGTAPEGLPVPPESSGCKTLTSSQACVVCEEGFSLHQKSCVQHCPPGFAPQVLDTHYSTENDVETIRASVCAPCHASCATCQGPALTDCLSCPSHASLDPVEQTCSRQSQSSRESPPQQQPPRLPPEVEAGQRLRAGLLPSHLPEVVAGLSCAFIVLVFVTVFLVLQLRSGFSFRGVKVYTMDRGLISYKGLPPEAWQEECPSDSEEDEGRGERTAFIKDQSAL
Chain of PC5/6 (Q92824 115-1860): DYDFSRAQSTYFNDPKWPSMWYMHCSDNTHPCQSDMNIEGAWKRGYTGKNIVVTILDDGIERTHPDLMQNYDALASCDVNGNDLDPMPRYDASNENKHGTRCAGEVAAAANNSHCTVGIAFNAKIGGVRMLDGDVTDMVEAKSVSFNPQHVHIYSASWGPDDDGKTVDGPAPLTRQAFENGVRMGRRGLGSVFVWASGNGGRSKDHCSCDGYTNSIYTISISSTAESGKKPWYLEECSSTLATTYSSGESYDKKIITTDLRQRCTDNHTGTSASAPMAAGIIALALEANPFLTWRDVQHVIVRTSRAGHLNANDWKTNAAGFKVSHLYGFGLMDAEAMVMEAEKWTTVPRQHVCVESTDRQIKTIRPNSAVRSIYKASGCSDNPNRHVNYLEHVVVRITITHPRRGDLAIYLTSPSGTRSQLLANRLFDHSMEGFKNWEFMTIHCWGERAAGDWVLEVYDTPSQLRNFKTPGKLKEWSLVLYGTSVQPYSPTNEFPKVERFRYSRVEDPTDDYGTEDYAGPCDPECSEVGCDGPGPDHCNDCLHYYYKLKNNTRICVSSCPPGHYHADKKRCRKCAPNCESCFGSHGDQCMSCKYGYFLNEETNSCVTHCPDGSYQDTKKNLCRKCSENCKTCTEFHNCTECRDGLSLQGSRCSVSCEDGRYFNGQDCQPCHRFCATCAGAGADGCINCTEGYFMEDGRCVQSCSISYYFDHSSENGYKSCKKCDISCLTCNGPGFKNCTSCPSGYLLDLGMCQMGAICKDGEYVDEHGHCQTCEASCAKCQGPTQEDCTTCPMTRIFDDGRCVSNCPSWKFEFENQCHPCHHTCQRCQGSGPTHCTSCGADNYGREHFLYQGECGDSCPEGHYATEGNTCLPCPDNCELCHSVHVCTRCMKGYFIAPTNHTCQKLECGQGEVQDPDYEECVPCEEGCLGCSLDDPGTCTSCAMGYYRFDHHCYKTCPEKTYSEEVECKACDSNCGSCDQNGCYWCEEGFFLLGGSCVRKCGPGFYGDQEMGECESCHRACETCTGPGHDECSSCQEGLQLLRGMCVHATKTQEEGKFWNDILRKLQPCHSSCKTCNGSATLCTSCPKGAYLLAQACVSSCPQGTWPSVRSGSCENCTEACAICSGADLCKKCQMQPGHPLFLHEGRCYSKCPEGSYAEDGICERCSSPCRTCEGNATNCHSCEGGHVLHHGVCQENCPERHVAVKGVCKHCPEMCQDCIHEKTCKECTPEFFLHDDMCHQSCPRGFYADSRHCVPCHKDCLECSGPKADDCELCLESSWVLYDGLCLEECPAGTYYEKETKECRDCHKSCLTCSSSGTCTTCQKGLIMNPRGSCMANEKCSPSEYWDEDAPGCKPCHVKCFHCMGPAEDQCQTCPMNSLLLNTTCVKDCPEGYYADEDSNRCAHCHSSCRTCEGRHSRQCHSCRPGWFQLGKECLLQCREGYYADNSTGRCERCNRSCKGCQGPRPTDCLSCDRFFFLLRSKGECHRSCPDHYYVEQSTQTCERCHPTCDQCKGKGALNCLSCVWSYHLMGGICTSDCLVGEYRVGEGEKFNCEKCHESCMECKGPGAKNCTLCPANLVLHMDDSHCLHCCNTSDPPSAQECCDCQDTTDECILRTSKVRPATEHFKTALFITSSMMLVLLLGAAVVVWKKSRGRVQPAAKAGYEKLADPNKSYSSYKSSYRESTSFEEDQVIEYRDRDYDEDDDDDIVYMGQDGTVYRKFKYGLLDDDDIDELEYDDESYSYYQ

Row | Compound | Ki (PC7) | Cell proliferation index ([2]; DU145, 1 μM peptide) | Cell proliferation index ([2]; DU145, 10 μM peptide) | Cell proliferation index ([2]; DU145, 50 μM peptide) | Cell proliferation index ([2]; DU145, 100 μM peptide) | effect on cell proliferation index, in words [3] | effect on cell proliferation index, in words [4] | inhibition potency on furin, in words (furin) | other results
1 | CC(C)C[C@H](NC(=O)[C@H](CC(C)C)NC(=O)[C@H](CC(C)C)NC(=O)[C@@H](N)CC(C)C)C(=O)N[C@@H](CC(C)C)C(=O)N[C@@H](CCCNC(=N)N)C(=O)N[C@H](C(=O)N[C@@H](CCCCN)C(=O)N[C@@H](CCCNC(=N)N)C(N)=O)C(C)C [5 Leu] | 35 to 50 nM | – | – | – | – | – | – | – | –
2 | N.N.[Cl][Pt][Cl] [cisplatin] | – | – | – | – | – | – | – | – | annexin-V positivity (DU145 cells; untreated 2%): 30%; PI staining (dead cells) (DU145 cells; untreated 6%): 12%; annexin-V positivity ([1]; untreated 3%): 17%; PI staining (dead cells) ([1]; untreated 7%): 16%
3 | CH3CO—NH-LLLLRVKR-NH2 (Ac-LLLLRVKR-NH2) [acetyl ML] | – | 63.84% | 41.91% | 25.79% | 24.05% | significant effects | significant effects | – | –
4 | H-LLLLRVKR-NH2 [ML] | 35 to 50 nM and 50 nM | 97.73% | 92.03% | 72.57% | 54.70% | significant effects | significant effects | – | inhibition potency on PACE4, in words (PACE4): nanomolar range; Ki (PACE4; 20 mM Bis-Tis pH 6.5, 1 mM CaCl2, substrate 100 μM, 37° C.): 6 nM; more effective on PACE4 than the other PCs (PACE4; ratio of Ki values, other PCs vs PACE4): ≥ 9 folds
5 | LLRVKR [LLRVKR—NH2, LLRVKR-NH2] | – | – | – | – | – | – | – | mid-nanomolar inhibitors | inhibition potency on PC5/6, in words (PC5/6): mid-low nanomolar range; inhibition potency on PC1/3, in words (PC1/3): best inhibited
6 | LRVKR [LRVKR—NH2, LRVKR-NH2] | – | – | – | – | – | – | – | mid-nanomolar inhibitors | –
